Data: patent US20100255580A1, “Differentiation of Human Embryonic Stem Cells” (LIFESCCAN, INC., priority 2007, published 2010)
Where “and” joins values, the source holds several entries; their conditions need not be identical. Equal values may be shown once.

What was measured:
[1] = test system: human embryonic stem cell line H9; assay: Cytokine array analysis of cell lysates and conditioned media; type: cell-based; set-up: key to BMP-4 expression / BMP-6 expression / EGF expression / FGF-6 expression / Fractalkine expression / GCP-2 expression / IL-3 expression / IL-4 expression / IL-6 expression / M-CSF expression / MIG expression / Amphiregulin expression: cytokine array signal, normalized and background-subtracted
Procedure: The effect that Wnt-3a treatment has on cytokine expression was analyzed using a protein array. Cells of the human embryonic stem cell line H9 were cultured according to the methods described in Example 15. At passage 54, cells were differentiated in the presence of 100 ng/ml ActivinA+/−10 ng/ml Wnt3a for 2 days in 0.5% FBS DMEM/F12. Cells were subsequently cultured for an additional three days in 100 ng/mlActivin A and 2% FBS DMEM/F12. At the end of the 5th day, CXCR4 expression was determined by FACS for each treatment group.
Cell lysates were prepared from cells of each treatment group, with a mammalian cell lysis kit (Sigma-Aldrich, MO). Conditioned media from each treatment group was collected and concentrated. Cytokine array analysis was completed using Cytokine Array panels provided by RayBiotech, GA (http://www.raybiotech.com/). Table VII lists cytokine, growth factor, and receptor expression following normalization of the data and background subtraction. For each panel, positive and negative controls are also included. Th data shown are two independent samples per cell treatment group (1,2).

[2] = test system: human embryonic stem cell line H9; assay: Real-time PCR, H9 maintained on […] and differentiated on MEFs (Example 25); type: cell-based; conditions: lower concentration of Activin A, regardless of Wnt3a
Procedure: Cells from the human embryonic stem cell line H9 cultured on […]™ for at least five passages were seeded onto MEF feeders in ES media.
At day 3 and 5, the cultures were analyzed by real time PCR for SOX-17, SOX-7, Alpha-fetal protein (AFP), CXCR4, Brychyury (Bry), gooscecoid (GSC), HNF-3 beta, GATA4, hTERT and Oct4. AFP and SOX-7 are regarded as visceral endoderm markers while GATA4, HNF-3beta and SOX-17 represent definite endoderm markers and GSC, Bry, and CXCR4 represent markers of primitive streak. hTERT and Oct-4 are markers for self renewal and pluripotency respectively. FACS analysis was also performed at day 3 and 5.

Activin A: a member of the TGFβ superfamily; R&D Systems; Group 2 = Activin A (100 ng/ml)
1L-1beta expression ([1]; Cell conditioned media): 117.99 and 75.93 | 1L-1ra expression ([1]; Cell conditioned media): 142.34 and 93.74 | Acrp30 expression ([1]; Cell conditioned media): 1,797.52 and 1,319.88 | AgRP expression ([1]; Cell conditioned media): 378.17 and 195.90 | Amphiregulin expression ([1]; Cell conditioned media): 250.52 and 151.01 | Angiogenin expression ([1]; Cell conditioned media): 13,726.35 and 11,749.55 | Angiopoietin-2 expression ([1]; Cell conditioned media): 655.82 and 632.60 | AxI expression ([1]; Cell conditioned media): 401.31 and 324.05 | BDNF expression ([1]; Cell conditioned media): 689.22 and 563.39 | BMP-4 expression ([1]; Cell conditioned media): 583.40 and 541.83 | BMP-6 expression ([1]; Cell conditioned media): 354.91 and 355.28 | CK beta 8-1 expression ([1]; Cell conditioned media): 17.79 and 25.31 | CNTF expression ([1]; Cell conditioned media): 282.81 and 211.86 | EGF expression ([1]; Cell conditioned media): 1,681.85 and 1,406.12 | Eotaxin expression ([1]; Cell conditioned media): 207.89 and 199.67 | Eotaxin-2 expression ([1]; Cell conditioned media): 890.56 and 744.31 | Eotaxin-3 expression ([1]; Cell conditioned media): 975.77 and 665.56 | FGF-7 expression ([1]; Cell conditioned media): 449.49 and 352.47 | Flt-3 Ligand expression ([1]; Cell conditioned media): 315.58 and 277.47 | Fractalkine expression ([1]; Cell conditioned media): 120.80 and 145.30 | GCP-2 expression ([1]; Cell conditioned media): 203.21 and 166.86 | GDNF expression ([1]; Cell conditioned media): 176.99 and 194.98 | GM-CSF expression ([1]; Cell conditioned media): 777.25 and 722.75 | IFN-gamma expression ([1]; Cell conditioned media): 283.74 and 559.64 | IGF-I expression ([1]; Cell conditioned media): 88.96 and 148.11 | IGFBP-1 expression ([1]; Cell conditioned media): 33.71 and 24.37 | IGFBP-2 expression ([1]; Cell conditioned media): 27,656.85 and 28,473.95 | IGFBP-4 expression ([1]; Cell conditioned media): 10,091.09 and 6,029.45 | IL-1alpha expression ([1]; Cell conditioned media): 10,155.70 and 5,842.90 | IL-2 expression ([1]; Cell conditioned media): 188.22 and 363.72 | IL-3 expression ([1]; Cell conditioned media): 4,598.86 and 5,260.77 | IL-4 expression ([1]; Cell conditioned media): 357.72 and 239.04 | IL-6 expression ([1]; Cell conditioned media): 7,377.28 and 9,527.88 | IL-7 expression ([1]; Cell conditioned media): 456.98 and 430.27 | IL-10 expression ([1]; Cell conditioned media): 722.93 and 564.32 | IL-16 expression ([1]; Cell conditioned media): 259.39 and 214.67 | LIGHT expression ([1]; Cell conditioned media): 619.92 and 453.71 | Leptin expression ([1]; Cell conditioned media): 2,999.42 and 2,016.38 | M-CSF expression ([1]; Cell conditioned media): 529.09 and 269.04 | MCP-1 expression ([1]; Cell conditioned media): 572.17 and 500.58 | MCP-4 expression ([1]; Cell conditioned media): 123.61 and 61.87 | MIG expression ([1]; Cell conditioned media): 272.50 and 486.52 | NAP-2 expression ([1]; Cell conditioned media): 97.39 and 110.61 | NT-3 expression ([1]; Cell conditioned media): 97.39 and 171.55 | PDGF-BB expression ([1]; Cell conditioned media): 4,729.96 and 8,521.09 | RANTES expression ([1]; Cell conditioned media): 393.31 and 347.78 | SCF expression ([1]; Cell conditioned media): 691.09 and 487.46 | TGF-beta 1 expression ([1]; Cell conditioned media): 752.90 and 740.56 | TGF-beta 3 expression ([1]; Cell conditioned media): 111.44 and 115.30 | TNF-beta expression ([1]; Cell conditioned media): 675.17 and 671.19 | bFGF expression ([1]; Cell conditioned media): 7,948.03 and 4,993.83 | 1L-1beta expression ([1]; Cell lysate): 1.00 and 1.13 | 1L-1ra expression ([1]; Cell lysate): 33.00 and 25.91 | Amphiregulin expression ([1]; Cell lysate): 17.50 and 15.44 | AxI expression ([1]; Cell lysate): 637.50 and 795.83 | BDNF expression ([1]; Cell lysate): 167.50 and 167.82 | BMP-4 expression ([1]; Cell lysate): 247.00 and 273.70 | CK beta 8-1 expression ([1]; Cell lysate): 1.00 and 1.13 | Eotaxin-2 expression ([1]; Cell lysate): 262.00 and 336.77 | Eotaxin-3 expression ([1]; Cell lysate): 184.50 and 284.96 | FGF-6 expression ([1]; Cell lysate): 629.00 and 379.57 | GM-CSF expression ([1]; Cell lysate): 433.00 and 636.37 | I-309 expression ([1]; Cell lysate): 152.50 and 246.10 | IFN-gamma expression ([1]; Cell lysate): 349.00 and 441.52 | IGFBP-2 expression ([1]; Cell lysate): 3,785.50 and 5,554.45 | IGFBP-4 expression ([1]; Cell lysate): 5,553.00 and 6,043.27 | IL-1alpha expression ([1]; Cell lysate): 1,236.00 and 1,216.99 | IL-5 expression ([1]; Cell lysate): 400.50 and 555.84 | IL-6 expression ([1]; Cell lysate): 828.50 and 516.98 | IL-7 expression ([1]; Cell lysate): 190.00 and 313.12 | IL-13 expression ([1]; Cell lysate): 428.50 and 555.84 | IL-15 expression ([1]; Cell lysate): 599.50 and 808.13 | Leptin expression ([1]; Cell lysate): 900.50 and 617.79 | MCP-1 expression ([1]; Cell lysate): 242.50 and 282.71 | MIG expression ([1]; Cell lysate): 291.00 and 226.39 | MIP-1-delta expression ([1]; Cell lysate): 1.50 and 1.13 | NT-3 expression ([1]; Cell lysate): 1.00 and 1.13 | SCF expression ([1]; Cell lysate): 74.50 and 148.67 | TGF-beta 1 expression ([1]; Cell lysate): 362.00 and 230.33 | TNF-alpha expression ([1]; Cell lysate): 431.00 and 579.49 | TNF-beta expression ([1]; Cell lysate): 241.00 and 342.40 | bFGF expression ([1]; Cell lysate): 59,820.50 and 54,057.29 | AFP expression [2]: very high
